From PubChem BioAssay (NCI)
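Following 48 hours of exposure in 96-well plates, responses at five concentrations were used to interpolate endpoints linearly. TGI marks complete inhibition of growth.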

Columns and labels:
Experiment in all cases: NCI-60 cell line screen, 48 h
[1] = test system: 786-0 renal
[2] = test system: A498 renal
[3] = test system: A549 NSCLC
[4] = test system: ACHN renal
[5] = test system: BT-549 breast
[6] = test system: CAKI-1 renal
[7] = test system: CCRF-CEM leukemia
[8] = test system: COLO 205 colon
[9] = test system: DU-145 prostate
[10] = test system: EKVX NSCLC
[11] = test system: HCC-2998 colon
[12] = test system: HCT-116 colon
[13] = test system: HCT-15 colon
[14] = test system: HL-60(TB) leukemia
[15] = test system: HOP-62 NSCLC
[16] = test system: HOP-92 NSCLC
[17] = test system: HT29 colon
[18] = test system: IGROV1 ovarian
[19] = test system: K-562 leukemia
[20] = test system: KM12 colon
[21] = test system: LOX IMVI melanoma
[22] = test system: M14 melanoma
[23] = test system: MALME-3M melanoma
[24] = test system: MCF7 breast
[25] = test system: MDA-MB-231 breast
[26] = test system: MDA-MB-435
[27] = test system: MDA-N
[28] = test system: MOLT-4 leukemia
[29] = test system: NCI-H226 lung
[30] = test system: NCI-H23 lung
[31] = test system: NCI-H460 lung
[32] = test system: NCI-H522 lung
[33] = test system: NCI/ADR-RES ovarian
[34] = test system: OVCAR-3 ovarian
[35] = test system: OVCAR-4 ovarian
[36] = test system: OVCAR-5 ovarian
[37] = test system: OVCAR-8 ovarian
[38] = test system: PC-3 prostate
[39] = test system: RXF 393 renal
[40] = test system: SF-268 CNS
[41] = test system: SF-295 CNS
[42] = test system: SF-539 CNS
[43] = test system: SK-MEL-28 melanoma
[44] = test system: SK-OV-3 ovarian
[45] = test system: SN12C renal
[46] = test system: SNB-19 CNS
[47] = test system: SNB-75 CNS
[48] = test system: SR leukemia
[49] = test system: SW-620 colon
[50] = test system: T-47D breast
[51] = test system: TK-10 renal
[52] = test system: U251 CNS
[53] = test system: UACC-257 melanoma
[54] = test system: UACC-62 melanoma
[55] = test system: UO-31 renal
[56] = test system: HS 578T breast
[57] = test system: RPMI-8226 leukemia
[58] = test system: SK-MEL-2 melanoma
[59] = test system: SK-MEL-5 melanoma

Measured: TGI

COC(=O)c1c([N+](=O)[O-])ncn1[C@H]1OC[C@@H](OC(C)=O)[C@@H](OC(C)=O)[C@@H]1OC(C)=O
> 100 µM: [1] | [2] | [3] | [4] | [5] | [6] | [7] | [8] | [9] | [10] | [11] | [12] | [13] | [14] | [15] | [16] | [17] | [18] | [19] | [20] | [21] | [22] | [23] | [24] | [25] | [26] | [27] | [28] | [29] | [30] | [31] | [32] | [33] | [34] | [35] | [36] | [37] | [38] | [39] | [40] | [41] | [42] | [43] | [44] | [45] | [46] | [47] | [48] | [49] | [50] | [51] | [52] | [53] | [54] | [55]

CCOC(=O)Cc1csc(NC(NC(=O)OCC)(C(=O)OCC)C(F)(F)F)n1 (configuration not stated)
> 100 µM: [1] | [2] | [3] | [4] | [6] | [7] | [8] | [9] | [10] | [11] | [12] | [13] | [14] | [15] | [16] | [56] | [17] | [18] | [19] | [20] | [21] | [22] | [23] | [24] | [25] | [26] | [27] | [28] | [29] | [30] | [31] | [32] | [33] | [34] | [35] | [36] | [37] | [38] | [57] | [39] | [40] | [41] | [42] | [58] | [43] | [59] | [44] | [45] | [46] | [47] | [48] | [49] | [50] | [51] | [52] | [53] | [55]

Cc1ccc2c(c1)C(=C(C#N)C#N)CCCS2(=O)=O
> 100 µM: [1] | [2] | [3] | [4] | [5] | [6] | [7] | [8] | [9] | [10] | [11] | [12] | [13] | [14] | [15] | [16] | [56] | [17] | [18] | [19] | [20] | [21] | [22] | [25] | [26] | [27] | [28] | [29] | [30] | [31] | [33] | [34] | [35] | [36] | [37] | [38] | [57] | [39] | [40] | [41] | [42] | [58] | [43] | [44] | [45] | [46] | [47] | [48] | [49] | [50] | [51] | [52] | [53] | [54] | [55]
